Assay [1] deals with primary mouse hepatocytes (C57/b6). The experiment in a line: CCL2 and CCL7 gene expression by qPCR in primary mouse hepatocytes treated for 4 hours. The class given is cell-based. The settings on record: for CCL7 gene expression, fold change compared to no treatment (PBS) control: Compound 2 2 nanomolar to 200 nanomolar, Compound 1 200 nanomolar and 2 micromolar; for CCL2 gene expression, fold change compared to no treatment (PBS) control: normalized to GAPDH, Compound 2 200 picomolar to 200 nanomolar, Compound 1 up to 2 micromolar. How it is done:
FIG. 2. Compound 2 has unexpected biological activity in liver cells compared to H1BADP (Compound 1). Primary hepatocytes were isolated from fresh mouse livers of C57/b6 background. Cells were cultured in serum-free medium overnight before treatment with either Compound 1 or Compound 2 for 4 hours. Cells were harvested and mRNA expression analyzed by qPCR.
The reference compound, referred to herein also as “Compound 1” (HMP1BP) is an intermediate in the H1b-ADP biosynthetic pathway generated by the dephosphorylation of HBP (FIG. 1). Derivatives of Compound 1 were generated and their activities tested in primary mouse hepatocytes (C57/b6). […] Hepatocytes were first isolated from fresh C57/b6 mouse livers, transferred to serum-free medium, and cultured overnight before treatment with Compound 1 or Compound 2 for 4 hours. Liver cells were then harvested, the mRNA isolated and gene expression of C—C motif chemokine ligand 2 (CCL2) and C—C motif chemokine ligand 7 (CCL7) was analyzed by qPCR and presented as fold change compared to a no treatment (PBS) control. Gene expression was normalized to the expression of the housekeeping gene, glyceraldehyde-3-phosphate dehydrogenase (GAPDH). […] In this assay.
(Real-time PCR tracks product formation cycle by cycle.)

Assay [2] concerns chemokine and cytokine expression in liver cells. Description: Chemokine and cytokine gene expression by qPCR in liver of mice after oral gavage of HMP1BP derivatives. The format is in vivo, mouse. The settings on record: C57 female mice, 1 mg/kg oral gavage. As for the experimental part: FIG. 5A-B. Oral administration of HMP1BP derivatives activates chemokine and cytokine expression in liver cells. 8 week old C57 female mice were administered saline or the indicated compounds by oral gavage, Compounds 2-7 (1 mg·kg) (A) or compounds 9, 10 (1 mg/kg), 11, 13 and 14 (0.1 mg/kg) (B) were tested. Four hours after administration of saline or compound, organs were dissected and gene expression was analyzed by qPCR for CCL2, CCL7, CXCL1, CXCL10, IFNb, IL1b, IL6, and TNFa (A) or CCL2 and CCL7 (B).
Several additional Compound 1 derivatives were tested for cytokine and chemokine gene induction in hepatocytes. […] Mice were treated as described above. Briefly, 8 week-old C57 female mice were separately administered (1 mg/kg) either one of Compounds 2-7 or a saline/DMSO control by oral gavage and 4 hours later the livers were dissected and gene expression analyzed by qPCR. The gene expression results were normalized to GADPH expression. […] The additional genes tested in this experiment are: CXCL1, encoding C—X—C motif chemokine ligand 1; CXCL10, encoding C—X—C motif chemokine ligand 10; IFNb, encoding interferon beta; IL-1b, encoding interleukin 1 beta; IL6, encoding interleukin 6; and TNFα, encoding tumor necrosis factor alpha. […] All the derivatives induced CCL2 and CCL7 more than 20-fold above the control. Compound 2 induced CCL2, CCL7, CXCL10, IFNb, IL6 and TNFα each more than 20-fold.

A further assay has as its target T1, ALPK1 (Mus musculus, UniProt Q9CXB8).
T1 sequence (Q9CXB8 1-1231): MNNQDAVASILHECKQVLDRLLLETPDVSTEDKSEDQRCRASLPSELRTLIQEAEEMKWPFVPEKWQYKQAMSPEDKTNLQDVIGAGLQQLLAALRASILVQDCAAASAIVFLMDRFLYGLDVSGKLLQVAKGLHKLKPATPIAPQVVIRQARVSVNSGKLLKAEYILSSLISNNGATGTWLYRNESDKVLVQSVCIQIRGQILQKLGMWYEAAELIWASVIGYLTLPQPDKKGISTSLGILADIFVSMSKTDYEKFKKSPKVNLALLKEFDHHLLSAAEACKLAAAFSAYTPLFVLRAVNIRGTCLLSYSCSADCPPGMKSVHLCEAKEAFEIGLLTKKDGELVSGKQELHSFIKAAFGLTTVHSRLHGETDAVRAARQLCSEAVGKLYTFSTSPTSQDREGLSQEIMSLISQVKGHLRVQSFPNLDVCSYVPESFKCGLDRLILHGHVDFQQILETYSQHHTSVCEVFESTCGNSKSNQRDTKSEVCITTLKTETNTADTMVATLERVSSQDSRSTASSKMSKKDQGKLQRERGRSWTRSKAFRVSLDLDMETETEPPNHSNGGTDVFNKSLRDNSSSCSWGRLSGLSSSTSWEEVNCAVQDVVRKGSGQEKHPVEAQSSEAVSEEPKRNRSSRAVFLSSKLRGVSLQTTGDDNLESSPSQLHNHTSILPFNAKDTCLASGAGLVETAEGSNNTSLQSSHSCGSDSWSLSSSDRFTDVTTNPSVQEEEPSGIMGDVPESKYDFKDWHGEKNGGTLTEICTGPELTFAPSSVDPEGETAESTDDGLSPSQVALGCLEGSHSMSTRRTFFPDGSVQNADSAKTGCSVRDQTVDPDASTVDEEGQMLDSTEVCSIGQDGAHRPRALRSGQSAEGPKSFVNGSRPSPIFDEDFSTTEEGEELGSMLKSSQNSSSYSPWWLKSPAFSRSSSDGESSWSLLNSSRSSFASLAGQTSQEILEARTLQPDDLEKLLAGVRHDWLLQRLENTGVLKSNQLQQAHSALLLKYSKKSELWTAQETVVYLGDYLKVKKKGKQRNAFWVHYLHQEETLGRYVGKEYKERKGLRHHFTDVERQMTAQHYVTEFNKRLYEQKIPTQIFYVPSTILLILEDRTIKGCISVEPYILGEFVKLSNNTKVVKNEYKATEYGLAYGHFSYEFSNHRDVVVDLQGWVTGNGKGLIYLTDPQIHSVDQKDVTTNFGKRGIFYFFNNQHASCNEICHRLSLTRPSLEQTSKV
The experiment in a line: Liver chemokine gene expression by qPCR in ALPK1 knockout and wildtype mice after oral treatment. The class given is in vivo. More on the design: from tissue; host or cells: mouse liver (in vivo, wildtype vs ALPK1 knockout mice). To be noted: WT mice, oral 0.5 mg/kg, 4 hours, normalized to PBS treated WT mice. How it is done: FIG. 3. Compound 2 induces chemokine and cytokine expression via ALPK1. ALPK1 knockout (KO) mice and wildtype (WT) control were treated orally with either PBS or Compound 2 (0.5 mg/kg). Four hours after treatment, livers were dissected for gene expression analysis by qPCR. Expression was normalized to PBS treated WT mice.
ALPK1 knockout (KO) mice and wildtype (WT) control were treated orally with either PBS or Compound 2 (0.5 mg/kg). Four hours after treatment, livers were dissected for gene expression analysis by qPCR. Expression was normalized to PBS treated WT mice.

Assay [3] concerns hepatitis B virus AAV8-1.3 HBV. Description: AAV8-1.3 HBV mouse model: serum HBV DNA (qPCR), HBsAg and HBeAg (ELISA). The class given is in vivo. The settings on record: male C57BL/6 mice, 1 mg/kg per dose, vs PBS. How it is done: FIG. 6A-C. Compound 2 reduces hepatitis infection in murine model. Compound 2 was administered (1 mg/kg PO QD) and serum levels of HBV (A), HbsAg (B), or HbeAg (C) were measured after 7 days.
On day 1, male C57BL/6 mice were intravenously (i.v) injected with hepatitis B virus AAV8-1.3 HBV (1×10^11 v/g) (Beijing Five Plus Molecular Medicine Institute). On day 56 post-injection, each mouse was treated with Compound 2 two times per week (1 mg/kg per dose) or PBS. After seven days of treatment (at day 63 post injection), mouse serum was collected for analysis by qPCR (HBV DNA) and ELISA for Hepatitis B virus surface antigen (HBsAg) and Hepatitis B e-antigen (HBeAg). […] Specifically, the Compound 1 derivatives show tissue-specific liver cell activity and strong induction of cytokine and chemokine genes while also reducing HBV DNA and antigen titers in the serum of infected mice.

Assay [4] relates to CCL2 and CCL7 gene expression in kidney, esophagus, liver, lung, brain, and stomach. Description: CCL2 and CCL7 gene expression by qPCR in organs of mice after oral gavage. The class given is in vivo, mouse. To be noted: 4 hours. How it is done:
FIG. 4. Compound 2 activates cytokine expression only in the liver. 8 week old C57 females were administrated Compound 2 by oral gavage in 200 ul of Saline and 1.5% DMSO as diluent. Four hours later, organs were dissected and gene expression of CCL2 and CCL7 was analyzed by qPCR in kidney, esophagus, liver, lung, brain, and stomach.
In this experiment, CCL7 was expressed more than 50-fold above the PBS control and CCL2 was expressed more than 20-fold above the control.

Where [5] appears, read: after seven days of treatment, ELISA.
The mark [6] stands for this setting: liver, 8 week-old C57 female mice.

Turning to `O=P(O)(O)O[C@@H]1O[C@H]([C@H](O)CO)[C@@H](O)[C@H](O)[C@@H]1O` [Compound 1, (2S,3S,4S,5S,6R)-6-((R)-1,2-dihydroxyethyl)-3,4,5-trihydroxytetrahydro-2H-pyran-2-yl dihydrogen phosphate], in assay [1] (2 micromolar), the “CCL2 gene expression at the highest concentration tested” value is given as “only similar to that induced by the lowest concentration (200 picomolar) of Compound 2”. In assay [1], the “CCL7 gene expression, fold change compared to no treatment (PBS) control” value was “only a much smaller induction in CCL7 gene expression” and the “CCL2 gene expression, fold change compared to no treatment (PBS) control” value is given as “did not significantly induces CCL2 expression relative to the PBS control except at the highest concentration tested”.

As to `CC(=O)OC[C@H](F)C1O[C@@H](OP(=O)(N[C@@H](C)C(=O)OC(C)C)Oc2ccccc2)C(OC(C)=O)[C@@H](OC(C)=O)[C@@H]1OC(C)=O` (stereo partly drawn) [Compound 4, (2S,3S,4S,5S,6S)-2-((S)-2-acetoxy-1-fluoroethyl)-6-(((((S)-1-isopropoxy-1-oxopropan-2-yl)amino)(phenoxy)phosphoryl)oxy)tetra-hydro-2H-pyran-3,4,5-triyl triacetate], the IFNb gene induction entry in assay [2] (4 hours (FIG. 5A)) is “strong inductive effect”.

Regarding `CC(=O)OC[C@H](F)[C@H]1O[C@@H](OP(=O)(Oc2ccccc2)Oc2ccccc2)[C@@H](OC(C)=O)[C@@H](OC(C)=O)[C@@H]1OC(C)=O` [Compound 2, (2S,3S,4S,5S,6S)-2-((S)-2-acetoxy-1-fluoroethyl)-6-((diphenoxyphosphoryl)oxy)tetrahydro-2H-pyran-3,4,5-triyl triacetate], in assay [2] (4 hours (FIG. 5A)), the “CCL7 gene induction above the control” value was “more than 20 fold”, the CXCL10 gene induction result is given as “more than 20 fold”, the IFNb gene induction entry is listed as “more than 20 fold” and the IL6 gene induction entry was “more than 20 fold”. Moreover, the TNFα gene induction entry in assay [2] (4 hours (FIG. 5A)) is listed as “more than 20 fold”. Besides, the “CCL2 gene induction above the control” value in assay [2] (4 hours, normalized to GADPH (FIG. 5A)) was “more than 20 fold”. Also, the “expression of CCL2, CCL3, CCL7, and CXCL1 in liver” value at ALPK1 is reported as “induce the expression”. For the same compound, the “HBV DNA copy number in serum” value in assay [3] (after seven days of treatment (day 63 post injection), qPCR) is listed as “significantly reduced HBV DNA copy number”. In assay [3] (setting [5]), the “Hepatitis B e-antigen (HBeAg) in serum” value was “decreased compared to the PBS control” and the “Hepatitis B surface antigen (HBsAg) in serum” value was “decreased compared to the PBS control”. Further, the “cytokine and chemokine gene expression in other organs” value in assay [4] (kidney, esophagus, lung, brain, stomach) is “No other organ tissue analyzed showed cytokine and chemokine gene expression”. Moreover, in assay [4] (setting [6]), the “CCL2 gene expression above the control” value is reported as “more than 20 fold” and the “CCL7 gene expression above the PBS control” value is “more than 50 fold”. In addition, in assay [1], the “CCL7 gene expression, fold change compared to no treatment (PBS) control” value is “induced in a dose-dependent manner” and the “CCL2 gene expression, fold change compared to no treatment (PBS) control” value is recorded as “significantly induced CCL2 expression in a dose-dependent manner”.

These data come from US20220213135A1, “DERIVATIVES OF GLYCERO-MANNO-HEPTOSE PHOSPHATE AND THEIR USE IN MODULATING AN IMMUNE RESPONSE” (Shanghai Yao Yuan Biotechnology Co., Ltd., priority 2019, published 2022).
